Source: paper PMC8424629, “Chemical “Butterfly Effect” Explaining the Coordination Chemistry and Antimicrobial Properties of Clavanin Complexes” (Inorganic Chemistry, 2021)
Where no end group is shown, it is not given here.

What was measured:
[1] = assay type: physicochemical; settings: for log β H2L / log β H3L / log β H4L / log β H5L / log β H6L / log β HL: potentiometry pH 2-11, 298 K, 4 mM HClO4, I = 40 mM SDS, ligand 0.5 mM, SD in parentheses
Procedure: (§1) All peptides ([…]-COOH, […]-COOH, […]
(§2) were purchased from KareBay Biochem (USA) (certified purity: 98 %) and were used as received.
(§3) The carbonate-free stock solutions of 0.1 M NaOH were purchased from Sigma-Aldrich and then potentiometrically standardized with the primary standard potassium hydrogen phthalate (99.9 % purity). […]
(§4) Stability constants for proton, Zn(II) and Cu(II) complexes were calculated from pH -metric titration curves carried out over the pH range 2-11 at T = 298 K in water solution of 4 mM HClO 4 and ionic strength 40 mM (SDS), using a total volume of 3 ml. The potentiometric titrations were performed using a Metrohm Titrando 905 titrator and a Mettler Toledo InLab Micro comb ined pH electrode. The thermostabilized glass -cell was equipped with a magnetic stirring system, a microburette delivery tube and an inlet –outlet tube for argon.
(§5) Solutions were titrated with 0.1 M carbonate-free NaOH. The electrodes were calibrated daily f or hydrogen ion concentration by titrating HClO 4 with NaOH under the same experimental conditions as above. The purities and the exact concentrations of the ligand solutions were determined by the Gran method. 1 The ligand concentration was 0.5 mM. The Zn(II) and Cu(II) to ligand ratio was 1 : 1.
(§6) The standard potential and the slope of the electrode couple were computed by means of Glee 2 program. The HYPERQUAD 20063 program was used for the stability constant calculations. The standard deviations were computed by HYPERQUAD 2006 and refer to random errors only. The constants for the hydrolytic Zn(II ) species

[2] = assay type: binding
Procedure: as §1, §2, §3, §4, §5, §6

[3] = test system: Enterobacterales (for E. coli); parameters: method as in earlier work; settings: EUCAST/2021/01/01, ref 22 (SI), cited from earlier work; for MIC breakpoints R>: resistant breakpoint; for MIC breakpoints S≤: susceptible breakpoint
[4] = test system: Candida albicans ATCC 10231; settings: ATCC 10231, 24 h
[5] = test system: Enterococcus spp. (for E. faecalis); parameters: method as in earlier work; settings: EUCAST/2021/01/01, ref 22 (SI), cited from earlier work; for MIC breakpoints R>: resistant breakpoint; for MIC breakpoints S≤: susceptible breakpoint
[6] = test system: Staphylococcus spp. (for S. aureus); parameters: method as in earlier work; settings: EUCAST/2021/01/01, ref 22 (SI), cited from earlier work; for MIC breakpoints R>: resistant breakpoint; for MIC breakpoints S≤: susceptible breakpoint
[7] = potentiometry, 298 K, I = 40 mM SDS, Cu(II):L 1:1, 0.5 mM, SD in parentheses
[8] = potentiometry, 298 K, I = 40 mM SDS, Zn(II):L 1:1, 0.5 mM, SD in parentheses

H-VFQFLGRIIHHVGNFVHGFSHVF-OH [Clavanin B]
log β H2L [1]: 20.21 (2) | log β H3L [1]: 28.47 (2) | log β H4L [1]: 36.26 (2) | log β H5L [1]: 43.35 (2) | log β H6L [1]: 48.47 (2) | log β HL [1]: 11.17 (1) | log β CuH2L [2, 7]: 28.72 (3) | log β CuH3L [2, 7]: 35.57 (2) | log β CuH4L [2, 7]: 41.57 (3) | log β CuH-1L [2, 7]: 2.96 (3) | log β CuH-2L [2, 7]: -7.17 (3) | log β CuH-3L [2, 7]: -18.46 (4) | log β CuHL [2, 7]: 21.00 (3) | log β CuL [2, 7]: 12.37 (3) | log β ZnH2L [2, 8]: 25.24 (2) | log β ZnH3L [2, 8]: 32.61 (2) | log β ZnH4L [2, 8]: 39.23 (7) | log β ZnHL [2, 8]: 16.85 (1) | log β ZnL [2, 8]: 6.53 (7)

CC1(C)S[C@@H]2[C@H](NC(=O)[C@H](C(=O)O)c3ccsc3)C(=O)N2[C@H]1C(=O)O [Ticarcillin]
MIC breakpoints R> [3]: > 16 µg/mL | MIC breakpoints S≤ [3]: ≤ 8 µg/mL

H-LFKLLGKIIHHVGNFVHGFSHVF-OH [Clavanin E]
MIC [4]: 32 µg/mL | pKa, species H2L [1]: 9.19 | pKa, species H3L [1]: 8.29 | pKa, species H4L [1]: 7.82 | pKa, species H5L [1]: 7.30 | pKa, species H6L [1]: 5.55 | pKa, species HL [1]: 10.77 | log β H2L [1]: 19.96 (3) | log β H3L [1]: 28.25 (3) | log β H4L [1]: 36.07 (3) | log β H5L [1]: 43.37 (3) | log β H6L [1]: 48.92 (4) | log β HL [1]: 10.77 (2) | pKa, line CuH2L [2]: 6.90 | pKa, line CuH3L [2]: 5.96 | pKa, line CuH4L [2]: 5.16 | pKa, line CuH-1L [2]: 8.78 | pKa, line CuH-2L [2]: 10.05 | pKa, line CuH-3L [2]: 10.37 | pKa, line CuHL [2]: 7.72 | pKa, line CuL [2]: 8.81 | pKa, line ZnH2L [2]: 7.18 | pKa, line ZnHL [2]: 8.62 | pKa, line ZnL [2]: 9.77 | log β CuH2L [2, 7]: 29.52 (3) | log β CuH3L [2, 7]: 36.42 (3) | log β CuH4L [2, 7]: 42.38 (2) | log β CuH5L [2, 7]: 47.54 (3) | log β CuH-1L [2, 7]: 4.21 (4) | log β CuH-2L [2, 7]: -5.84 (4) | log β CuH-3L [2, 7]: -16.21 (5) | log β CuHL [2, 7]: 21.80 (3) | log β CuL [2, 7]: 12.99 (4) | log β ZnH2L [2, 8]: 25.12 (5) | log β ZnH3L [2, 8]: 32.30 (11) | log β ZnHL [2, 8]: 16.50 (6) | log β ZnL [2, 8]: 6.73

CC1=C(C(=O)O)N2C(=O)[C@@H](NC(=O)[C@H](N)c3ccccc3)[C@H]2SC1 [Cefalexin]
MIC breakpoints R> [3]: > 16 µg/mL | MIC breakpoints S≤ [3]: ≤ 16 µg/mL

CC1(C)S[C@@H]2[C@H](NC(=O)[C@H](N)c3ccccc3)C(=O)N2[C@H]1C(=O)O [Ampicillin]
MIC breakpoints R> [5]: > 8 µg/mL | MIC breakpoints S≤ [5]: ≤ 4 µg/mL

C[C@@H]1O[C@@H]1P(=O)(O)O [Fosfomycin iv, Fosfomycin]
MIC breakpoints R> [3]: > 32 µg/mL | MIC breakpoints S≤ [3]: ≤ 32 µg/mL | MIC breakpoints R> [6]: > 32 µg/mL | MIC breakpoints S≤ [6]: ≤ 32 µg/mL

CCN1CCN(C(=O)N[C@@H](C(=O)N[C@@H]2C(=O)N3[C@@H]2SC(C)(C)[C@@H]3C(=O)O)c2ccccc2)C(=O)C1=O [Piperacillin]
MIC breakpoints R> [3]: > 8 µg/mL | MIC breakpoints S≤ [3]: ≤ 8 µg/mL

NCC[C@H](O)C(=O)N[C@@H]1C[C@H](N)[C@@H](O[C@H]2O[C@H](CN)[C@@H](O)[C@H](O)[C@H]2O)[C@H](O)[C@H]1O[C@H]1O[C@H](CO)[C@@H](O)[C@H](N)[C@H]1O [Amikacin]
MIC breakpoints R> [6]: > 8 µg/mL | MIC breakpoints S≤ [6]: ≤ 8 µg/mL

CC1(C)S[C@@H]2[C@H](NC(=O)[C@H](N)c3ccc(O)cc3)C(=O)N2[C@H]1C(=O)O [Amoxicillin]
MIC breakpoints R> [5]: > 8 µg/mL | MIC breakpoints S≤ [5]: ≤ 4 µg/mL

CC1=C(C(=O)O)N2C(=O)[C@@H](NC(=O)[C@H](N)c3ccc(O)cc3)[C@H]2SC1 [Cefadroxil]
MIC breakpoints R> [3]: > 16 µg/mL | MIC breakpoints S≤ [3]: ≤ 16 µg/mL

VFQFLGRIIHHVGNFVHGFSHVF [Clavanin B]
pKa, species H2L [1]: 9.04 | pKa, species H3L [1]: 8.26 | pKa, species H4L [1]: 7.79 | pKa, species H5L [1]: 7.09 | pKa, species H6L [1]: 5.12 | pKa, species HL [1]: 11.17 | pKa, line CuH2L [2]: 6.86 | pKa, line CuH3L [2]: 5.99 | pKa, line CuH-1L [2]: 9.40 | pKa, line CuH-2L [2]: 10.14 | pKa, line CuH-3L [2]: 11.28 | pKa, line CuHL [2]: 7.71 | pKa, line CuL [2]: 8.64 | pKa, line ZnH2L [2]: 7.37 | pKa, line ZnH3L [2]: 6.62 | pKa, line ZnHL [2]: 8.39 | pKa, line ZnL [2]: 10.32

O=C1CN(/N=C/c2ccc([N+](=O)[O-])o2)C(=O)N1 [Nitrofurantoin]
MIC breakpoints R> [5]: > 64 µg/mL | MIC breakpoints S≤ [5]: ≤ 64 µg/mL | MIC breakpoints R> [3]: > 64 µg/mL | MIC breakpoints S≤ [3]: ≤ 64 µg/mL | MIC breakpoints R> [6]: > 64 µg/mL | MIC breakpoints S≤ [6]: ≤ 64 µg/mL

O=C(N[C@H](CO)[C@H](O)c1ccc([N+](=O)[O-])cc1)C(Cl)Cl [Chloramphenicol]
MIC breakpoints R> [6]: > 8 µg/mL | MIC breakpoints S≤ [6]: ≤ 8 µg/mL

O=[N+]([O-])c1ccc(O)c2ncccc12 [Nitroxoline]
MIC breakpoints R> [3]: > 16 µg/mL | MIC breakpoints S≤ [3]: ≤ 16 µg/mL
